From patent publication US5306732A, “Tumor necrosis factor antagonist” (Xenova Limited, priority 1989, dated 1994)

Legend:
TNF-receptor = TNF-receptor binding assay: binding of [125 I]-TNF to intact HL 60 cells; settings: [125 I]-TNF 700pM, 2 hours at room temperature
Description: An in-vitro binding assay, based upon the measurement of binding of [^125 I]-TNF to intact cells, was used to measure the TNF/vinigrol interaction. The assay is similar to that of Imamura et al, J. Biol. Chem, 263, 10247-10253 (1988). More particularly, HL 60 cells (ATCC CCL 240) were grown in RPMI 1640 medium containing 10% foetal calf serum (FCS) and 1mM glutamine to a density of 1×10^6 /ml and harvested by centrifugation at 150g for 10 minutes. Cells were resuspended to a density of 2×10^7 /ml in RPMI 1640 containing 1% bovine serum albumin. [^125 I]-TNF was diluted to 2.1nM in the above buffer containing 0.6% sodium azide. Non-specific binding was estimated by measuring the binding in the presence of a 100 fold excess of unlabelled TNF. [^125 I]-TNF, final concentration 700pM, vinigrol at the stated concentration and cells at a density of 5×10^6 /ml were incubated in the above buffer for 2 hours at room temperature. The reaction was terminated by filtering onto a LKB filter mat (1205-401) followed by extensive washing with phosphate-buffered saline: The filter mat was counted for radioactivity to determine the quantity of bound [^125 I)-TNF.

L929 cells = test: cells; format: cell-based; settings: Mus musculus, L929, read-out: Inhibition of TNF-induced cytotoxicity
Description: (§1) TNF causes lysis at low concentrations in sensitive cell lines. A cell line, known to be sensitive to TNF, was challenged with the cytokine in the presence of vinigrol and the reduction in cell mortality (as measured by cell staining) quantified in a manner similar to the method of Matthews, Immunology, 48, 321 (1982). A measurement of the cytotoxicity of vinigrol at the various concentrations was also carried out. L929 cells (4×10^4 /well) were incubated in RPMI 1640 medium containing 10ng/ml TNF, 0.05% lactalbumin hydrolysate and 1μg/ml actinomycin D plus the stated concentration of vinigrol overnight at […]. Cells were washed, fixed with methanol, stained with crystal violet and the cell density quantified by measuring absorbance at 590nm. The cytotoxicity of the samples was determined using the above method but excluding the TNF, in which experiments cell death would be due to the added vinigrol.

in vitro = format: cell-based; settings: mouse, l929 cells
Description: as §1

## CC(C)C1CCC(C)C2CCC(C)C3(O)C1C=C(CO)C(O)C23 (stereo not drawn) [Vinigrol]
TNF-receptor; vinigrol 3.1 μM
  Inhibition of [125 I]-TNF-binding: 8%
TNF-receptor; vinigrol 31 μM
  Inhibition of [125 I]-TNF-binding: 12%
TNF-receptor; vinigrol 310 μM
  Inhibition of [125 I]-TNF-binding: 100%
L929 cells
  inhibition at 3.1 µM: 91%
  inhibition at 15.5 µM: 100%
  inhibition at 77.5 µM: 100%
In vitro
  cytotoxicity at 3.1 µM: 30%
  cytotoxicity at 15.5 µM: 0%
  cytotoxicity at 77.5 µM: 7%
